From patent US8461152B2, “Arylcyclohexylethers of dihydrotetraazabenzoazulenes” (Hoffmann-La Roche Inc., priority 2008, dated 2013)
Where a name gives a salt, the structure may show the parent alone. One block for each compound: values may come before it.

Target: T1, human V1a receptor (Homo sapiens, UniProt P37288)
T1 construct: expressed in transfected cells; host or cells: HEK293 cells, transiently transfected; membrane preparation
Test: human V1a receptor binding studies (SPA, 3H-Vasopressin, membranes of transfected HEK293 cells)
Settings: displacement of 3H-Vasopressin, HEK293 cell membranes, 1 h at room temperature; Ki by Cheng-Prussoff equation; read-out: pKi (hV1a) (converted)
Procedure: The human V1a receptor was cloned by RT-PCR from total human liver RNA. The coding sequence was subcloned in an expression vector after sequencing to confirm the identity of the amplified sequence. […] Cell membranes were prepared from HEK293 cells transiently transfected with the expression vector and grown in 20 liter fermenters with the following protocol.
50 g of cells are resuspended in 30 ml freshly prepared ice cold Lysis buffer (50 mM HEPES, 1 mM EDTA, 10 mM magnesium dichloride adjusted to pH=7.4+complete cocktail of protease inhibitor (Roche Diagnostics)). Homogenized with Polytron for 1 min and sonicated on ice for 2×2 minutes at 80% intensity (Vibracell sonicator). The preparation is centrifuged 20 min at 500 g at 4° C., the pellet is discarded and the supernatant centrifuged 1 hour at 43'000 g at 4° C. (19'000 rpm). The pellet is resuspended in 12.5 ml Lysis buffer+12.5 ml Sucrose 20% and homogenized using a Polytron for 1-2 min. The protein concentration is determined by the Bradford method and aliquots are stored at −80° C. until use. For binding studies 60 mg Yttrium silicate SPA beads (Amersham) are mixed with an aliquot of membrane in binding buffer (50 mM Tris, 120 mM sodium chloride, 5 mM potassium chloride, 2 mM Calcium dichloride, 10 mM magnesium dichloride) for 15 minutes with mixing. 50 μl of bead/membrane mixture is then added to each well of a 96 well plate, followed by 50 μl of 4 nM 3H-Vasopressin (American Radiolabeled Chemicals). For total binding measurement 100 μl of binding buffer are added to the respective wells, for non-specific binding 100 μl of 8.4 mM cold vasopressin and for compound testing 100 μl of a serial dilution of each compound in 2% dimethyl sulfoxide. The plate is incubated 1 h at room temperature, centrifuged […] at 1000 g and counted on a Packard Top-Count. Non-specific binding counts are subtracted from each well and data is normalized to the maximum specific binding set at 100%. To calculate an IC 50 the curve is fitted using a non-linear regression model (XLfit) and the Ki is calculated using the Cheng-Prussoff equation.

T1 sequence (P37288 whole entry): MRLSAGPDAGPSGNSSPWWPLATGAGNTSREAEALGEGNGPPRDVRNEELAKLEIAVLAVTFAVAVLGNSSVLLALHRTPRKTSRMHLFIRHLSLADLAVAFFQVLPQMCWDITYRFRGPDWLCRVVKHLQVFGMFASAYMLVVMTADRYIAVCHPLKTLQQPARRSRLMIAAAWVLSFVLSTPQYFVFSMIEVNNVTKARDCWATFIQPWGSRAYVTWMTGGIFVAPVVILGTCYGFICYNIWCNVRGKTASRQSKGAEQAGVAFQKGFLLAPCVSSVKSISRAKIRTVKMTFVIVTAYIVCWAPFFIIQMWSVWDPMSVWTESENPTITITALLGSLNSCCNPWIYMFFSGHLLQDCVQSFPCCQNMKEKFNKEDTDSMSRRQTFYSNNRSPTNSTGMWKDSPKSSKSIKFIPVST

Compound: CC(C)(C)OC(=O)N1Cc2cc(Cl)ccc2-n2c(nnc2[C@H]2CC[C@H](Oc3ccc(F)cc3)CC2)C1 [Example 17, trans-8-Chloro-1-[4-(4-fluoro-phenoxy)-cyclohexyl]-4H,6H-2,3,5,10b-tetraaza-benzoazulene-5-carboxylic acid tert-butyl ester]
Ki: 3.72 nM

Ki: 9.55 nM
Compound: Fc1ccc(O[C@H]2CC[C@H](c3nnc4n3-c3ccc(Cl)cc3CNC4)CC2)cc1 [Example 18, trans-8-Chloro-1-[4-(4-fluoro-phenoxy)-cyclohexyl]-5,6-dihydro-4H-2,3,5,10b-tetraaza-benzo[e]azulene hydrochloride]

Compound: CN1Cc2cc(Cl)ccc2-n2c(nnc2[C@H]2CC[C@H](Oc3ccc(F)cc3)CC2)C1 [Example 19, trans-8-Chloro-1-[4-(4-fluoro-phenoxy)-cyclohexyl]-5-methyl-5,6-dihydro-4H-2,3,5,10b-tetraaza-benzoazulene]
Ki: 3.09 nM

Compound: CC(C)(C)OC(=O)N1Cc2cc(Cl)ccc2-n2c(nnc2[C@H]2CC[C@H](Oc3ccc(C#N)cc3)CC2)C1 [Example 20, trans-8-Chloro-1-[4-(4-cyano-phenoxy)-cyclohexyl]-4H,6H-2,3,5,10b-tetraaza-benzo[e]azulene-5-carboxylic acid tert-butyl ester]
Ki: 7.76 nM

Compound: CN1Cc2cc(Cl)ccc2-n2c(nnc2[C@H]2CC[C@H](Oc3ccc(C#N)cc3)CC2)C1 [Example 22, trans-4-[4-(8-Chloro-5-methyl-5,6-dihydro-4H-2,3,5,10b-tetraaza-benzo[e]azulen-1-yl)-cyclohexyloxy]-benzonitrile]
Ki: 8.91 nM

Compound: CC(C)(C)OC(=O)N1Cc2cc(Cl)ccc2-n2c(nnc2[C@H]2CC[C@H](Oc3ccc(C(F)(F)F)cc3)CC2)C1 [Example 23, trans-8-Chloro-1-[4-(4-trifluoromethyl-phenoxy)-cyclohexyl]-4H,6H-2,3,5,10b-tetraaza-benzo[e]azulene-5-carboxylic acid tert-butyl ester]
Ki: 9.12 nM

Compound: CC(C)(C)OC(=O)N1Cc2cc(Cl)ccc2-n2c(nnc2[C@H]2CC[C@H](Oc3cccc(Cl)c3)CC2)C1 [Example 26, trans-8-Chloro-1-[4-(3-chloro-phenoxy)-cyclohexyl]-4H,6H-2,3,5,10b-tetraaza-benzoazulene-5-carboxylic acid tert-butyl ester]
Ki: 4.17 nM

Compound: CN1Cc2cc(Cl)ccc2-n2c(nnc2[C@H]2CC[C@H](Oc3cccc(Cl)c3)CC2)C1 [Example 28, trans-8-Chloro-1-[4-(3-chloro-phenoxy)-cyclohexyl]-5-methyl-5,6-dihydro-4H-2,3,5,10b-tetraaza-benzoazulene]
Ki: 3.09 nM

Compound: COc1cccc(O[C@H]2CC[C@H](c3nnc4n3-c3ccc(Cl)cc3CN(C(=O)OC(C)(C)C)C4)CC2)c1 [Example 29, trans-8-Chloro-1-[4-(3-methoxy-phenoxy)-cyclohexyl]-4H,6H-2,3,5,10b-tetraaza-benzoazulene-5-carboxylic acid tert-butyl ester]
Ki: 4.68 nM

Ki: 3.31 nM
Compound: COc1cccc(O[C@H]2CC[C@H](c3nnc4n3-c3ccc(Cl)cc3CNC4)CC2)c1 [Example 30, trans-8-Chloro-1-[4-(3-methoxy-phenoxy)-cyclohexyl]-5,6-dihydro-4H-2,3,5,10b-tetraaza-benzo[e]azulene hydrochloride]

Compound: COc1cccc(O[C@H]2CC[C@H](c3nnc4n3-c3ccc(Cl)cc3CN(C)C4)CC2)c1 [Example 31, trans-8-Chloro-1-[4-(3-methoxy-phenoxy)-cyclohexyl]-5-methyl-5,6-dihydro-4H-2,3,5,10b-tetraaza-benzoazulene]
Ki: 2.09 nM

Compound: CN1Cc2cc(Cl)ccc2-n2c(nnc2[C@H]2CC[C@H](Oc3cccc(C#N)c3)CC2)C1 [Example 34, trans-3-[4-(8-Chloro-5-methyl-5,6-dihydro-4H-2,3,5,10b-tetraaza-benzoazulen-1-yl)-cyclohexyloxy]-benzo nitrile]
Ki: 2.69 nM

Compound: Cc1cccc(O[C@H]2CC[C@H](c3nnc4n3-c3ccc(Cl)cc3CN(C(=O)OC(C)(C)C)C4)CC2)c1 [Example 35, trans-8-Chloro-1-(4-m-tolyloxy-cyclohexyl)-4H,6H-2,3,5,10b-tetraaza-benzo[e]azulene-5-carboxylic acid tert-butyl ester]
Ki: 4.9 nM

Ki: 7.59 nM
Compound: Cc1cccc(O[C@H]2CC[C@H](c3nnc4n3-c3ccc(Cl)cc3CNC4)CC2)c1 [Example 36, trans-8-Chloro-1-(4-m-tolyloxy-cyclohexyl)-5,6-dihydro-4H-2,3,5,10b-tetraaza-benzo[e]azulene hydrochloride]

Compound: Cc1cccc(O[C@H]2CC[C@H](c3nnc4n3-c3ccc(Cl)cc3CN(C)C4)CC2)c1 [Example 37, trans-8-Chloro-5-methyl-1-(4-m-tolyloxy-cyclohexyl)-5,6-dihydro-4H-2,3,5,10b-tetraaza-benzo[e]azulene]
Ki: 1.7 nM

Compound: CC(C)(C)OC(=O)N1Cc2cc(Cl)ccc2-n2c(nnc2[C@H]2CC[C@H](Oc3cccc(C(C)(C)C)c3)CC2)C1 [Example 38, trans-1-[4-(3-tert-Butyl-phenoxy)-cyclohexyl]-8-chloro-4H,6H-2,3,5,10b-tetraaza-benzo[e]azulene-5-carboxylic acid tert-butyl ester]
Ki: 18.2 nM

Compound: CC(C)(C)OC(=O)N1Cc2cc(Cl)ccc2-n2c(nnc2[C@H]2CC[C@H](Oc3ccccc3F)CC2)C1 [Example 43, trans-8-Chloro-1-[4-(2-fluoro-phenoxy)-cyclohexyl]-4H,6H-2,3,5,10b-tetraaza-benzo[e]azulene-5-carboxylic acid tert-butyl ester]
Ki: 6.17 nM

Ki: 3.39 nM
Compound: Fc1ccccc1O[C@H]1CC[C@H](c2nnc3n2-c2ccc(Cl)cc2CNC3)CC1 [Example 44, trans-8-Chloro-1-[4-(2-fluoro-phenoxy)-cyclohexyl]-5,6-dihydro-4H-2,3,5,10b-tetraaza-benzo[e]azulene hydrochloride]

Compound: CN1Cc2cc(Cl)ccc2-n2c(nnc2[C@H]2CC[C@H](Oc3ccccc3F)CC2)C1 [Example 45, trans-8-Chloro-1-[4-(2-fluoro-phenoxy)-cyclohexyl]-5-methyl-5,6-dihydro-4H-2,3,5,10b-tetraaza-benzo[e]azulene]
Ki: 3.63 nM

Compound: CC(C)(C)OC(=O)N1Cc2cc(Cl)ccc2-n2c(nnc2[C@H]2CC[C@H](Oc3ccccc3C#N)CC2)C1 [Example 46, trans-8-Chloro-1-[4-(2-cyano-phenoxy)-cyclohexyl]-4H,6H-2,3,5,10b-tetraaza-benzoazulene-5-carboxylic acid tert-butyl ester]
Ki: 2.88 nM

Ki: 1.2 nM
Compound: N#Cc1ccccc1O[C@H]1CC[C@H](c2nnc3n2-c2ccc(Cl)cc2CNC3)CC1 [Example 47, trans-2-[4-(8-Chloro-5,6-dihydro-4H-2,3,5,10b-tetraaza-benzo[e]azulen-1-yl)-cyclohexyloxy]-benzonitrile hydrochloride]

Compound: CN1Cc2cc(Cl)ccc2-n2c(nnc2[C@H]2CC[C@H](Oc3ccccc3C#N)CC2)C1 [Example 48, trans-2-[4-(8-Chloro-5-methyl-5,6-dihydro-4H-2,3,5,10b-tetraaza-benzoazulen-1-yl)-cyclohexyloxy]-benzonitrile]
Ki: 0.794 nM

Compound: Cc1ccccc1O[C@H]1CC[C@H](c2nnc3n2-c2ccc(Cl)cc2CN(C(=O)OC(C)(C)C)C3)CC1 [Example 49, trans-8-Chloro-1-(4-o-tolyloxy-cyclohexyl)-4H,6H-2,3,5,10b-tetraaza-benzoazulene-5-carboxylic acid tert-butyl ester]
Ki: 7.08 nM

Compound: Cc1ccccc1O[C@H]1CC[C@H](c2nnc3n2-c2ccc(Cl)cc2CN(C)C3)CC1 [Example 51, trans-8-Chloro-5-methyl-1-(4-o-tolyloxy-cyclohexyl)-5,6-dihydro-4H-2,3,5,10b-tetraaza-benzoazulene]
Ki: 3.72 nM

Compound: CC(C)(C)OC(=O)N1Cc2cc(Cl)ccc2-n2c(nnc2[C@H]2CC[C@H](Oc3cc(F)cc(F)c3)CC2)C1 [Example 52, trans-8-Chloro-1-[4-(3,5-difluoro-phenoxy)-cyclohexyl]-4H,6H-2,3,5,10b-tetraaza-benzoazulene-5-carboxylic acid tert-butyl ester]
Ki: 3.47 nM

Compound: CN1Cc2cc(Cl)ccc2-n2c(nnc2[C@H]2CC[C@H](Oc3cc(F)cc(F)c3)CC2)C1 [Example 54, trans-8-Chloro-1-[4-(3,5-difluoro-phenoxy)-cyclohexyl]-5-methyl-5,6-dihydro-4H-2,3,5,10b-tetraaza-benzoazulene]
Ki: 3.89 nM

Compound: CC(C)(C)OC(=O)N1Cc2cc(Cl)ccc2-n2c(nnc2[C@H]2CC[C@H](Oc3ccc4ccccc4c3)CC2)C1 [Example 55, trans-8-Chloro-1-[4-(naphthalen-2-yloxy)-cyclohexyl]-4H,6H-2,3,5,10b-tetraaza-benzoazulene-5-carboxylic acid tert-butyl ester]
Ki: 9.33 nM
